Reference: patent US20250026759A1 (Merck Sharp & Dohme LLC, priority 2023, published 2025)

Test system: PBMCs infected with VSV-G pseudotyped HIV virus (VSV-G/pNLG1-P2A-ΔEnv)
Test: cells
Format: cell-based, human
Conditions: Homo sapiens, PBMC, read-out: TACK EC50

Work on `Cc1ccn(Cc2ccc3c(c2)NC(=O)N[C@]3(C#CC2CC2)C(F)(F)F)n1` [Example 127, (S)-4-(cyclopropylethynyl)-7-((3-methyl-1H-pyrazol-1-yl)methyl)-4-(trifluoromethyl)-3,4-dihydroquinazolin-2(1H)-one] yielded an EC50 of 103 nM.
In the case of `Cc1nn(Cc2cc3c(cc2F)[C@@](C#CC2CC2)(C(C)(F)F)NC(=O)N3)c(=O)n1C` [Example 128, (S)-4-(cyclopropylethynyl)-4-(1,1-difluoroethyl)-7-((3,4-dimethyl-5-oxo-4,5-dihydro-1H-1,2,4-triazol-1-yl)methyl)-6-fluoro-3,4-dihydroquinazolin-2(1H)-one], the EC50 is reported as 115 nM.
Work on `CC(C)(O)c1ccn(Cc2cc3c(cc2F)[C@@](C#CC2CC2)(C(C)(F)F)NC(=O)N3)n1` [Example 129, (S)-4-(cyclopropylethynyl)-4-(1,1-difluoroethyl)-6-fluoro-7-((3-(2-hydroxypropan-2-yl)-1H-pyrazol-1-yl)methyl)-3,4-dihydroquinazolin-2(1H)-one] yielded an EC50 of 171 nM.
